# Measurements: the NIST ThermoML archive (doi:10.1016/j.fluid.2013.05.019)
# Numbers after ± are expanded uncertainties.
# Key:
# [1] = Boiling temperature at pressure P; conditions: 101 kPa; Liquid; Ebulliometric method (Recirculating still)
# [2] = Liquid, Manometric method
compound,measurement,setting,value
"C=C(C)C(C)C [2,3-dimethyl-1-butene]",Boiling temperature at pressure P,[1],55.73 ± 0.04 °C
"CC(C)=C(C)C [2,3-dimethyl-2-butene]",Boiling temperature at pressure P,[1],73.00 ± 0.04 °C
Cc1ccsc1 [3-methylthiophene],Boiling temperature at pressure P,[1],115.20 ± 0.04 °C
CCCCCCC [heptane],Boiling temperature at pressure P,[1],98.49 ± 0.04 °C
same,vapor or sublimation pressure,[2]; 370.27 K,97.43 ± 0.32 kPa
same,vapor or sublimation pressure,[2]; 370.74 K,98.52 ± 0.33 kPa
same,vapor or sublimation pressure,[2]; 370.93 K,99.39 ± 0.34 kPa
same,vapor or sublimation pressure,[2]; 371.13 K,99.78 ± 0.33 kPa
same,vapor or sublimation pressure,[2]; 371.52 K,101.07 ± 0.34 kPa
same,vapor or sublimation pressure,[2]; 372.25 K,103.43 ± 0.32 kPa
same,vapor or sublimation pressure,[2]; 372.36 K,103.56 ± 0.35 kPa
same,vapor or sublimation pressure,[2]; 372.56 K,104.41 ± 0.34 kPa
same,vapor or sublimation pressure,[2]; 372.76 K,104.67 ± 0.35 kPa
same,vapor or sublimation pressure,[2]; 372.97 K,105.83 ± 0.36 kPa
same,vapor or sublimation pressure,[2]; 373.17 K,106.29 ± 0.34 kPa
same,vapor or sublimation pressure,[2]; 373.48 K,107.02 ± 0.34 kPa
c1ccsc1 [thiophene],Boiling temperature at pressure P,[1],84.27 ± 0.04 °C
